The record followed here is BindingDB's records for doi:10.1021/jm801654y (Harvard Medical School, 2009).

By IC50 is commonly meant the concentration that inhibits the measured activity by half.

For this experiment, the target named is T1, Histone deacetylase (Plasmodium falciparum (isolate 3D7), UniProt Q7K6A1).
T1 sequence (Q7K6A1 whole entry): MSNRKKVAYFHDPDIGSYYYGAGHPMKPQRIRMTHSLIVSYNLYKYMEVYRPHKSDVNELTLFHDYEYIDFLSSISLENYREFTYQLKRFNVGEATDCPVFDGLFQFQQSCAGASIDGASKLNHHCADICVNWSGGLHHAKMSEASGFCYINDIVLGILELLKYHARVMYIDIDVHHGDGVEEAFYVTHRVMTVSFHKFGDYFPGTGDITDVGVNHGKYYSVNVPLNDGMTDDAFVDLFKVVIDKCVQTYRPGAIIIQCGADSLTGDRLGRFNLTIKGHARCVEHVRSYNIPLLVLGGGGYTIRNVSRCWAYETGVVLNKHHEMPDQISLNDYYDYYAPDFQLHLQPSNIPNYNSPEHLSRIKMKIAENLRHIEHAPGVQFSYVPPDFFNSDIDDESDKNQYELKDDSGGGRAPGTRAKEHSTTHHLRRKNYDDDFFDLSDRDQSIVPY
Kind of experiment: pfHDAC-1 Enzyme Assay. The conditions noted are these: pH 7.5; 23 °C. Here is the method:
Recombinant pfHDAC-1 was assayed with substrate in the presence of test compound. […] The reaction was allowed to proceed at room temperature for 15 hrs in sealed plates to minimize evaporation. […] Fluorescence was monitored after 1 hr at excitation and emission wavelengths of 360 and 460 nm, respectively. Kinetic constants were calculated by non-linear regression fitting of the data to the Michaelis-Menten equation. Kinetic and inhibition values reported are the mean of three determinations +/- standard deviation.
As for `O=C(CCCCC(=O)NN=Cc1cc(O)ccc1Br)NO` [benzylidenehydrazine derivative, 22], the IC50 turned out to be 89 nM.

With `O=C(CCCCC(=O)NN=Cc1ccc(O)cc1Br)NO` [benzylidenehydrazine derivative, 21], 106 nM corresponded to half-maximal inhibition (IC50). The IC50 values of the last two compounds are within 1.5-fold of each other.

In turn, `O=C(CCCCCC(=O)NN=Cc1cccc(O)c1)NO` [benzylidenehydrazine derivative, 8] yielded an IC50 of 59 nM. This IC50 is about 1.8-fold lower than that of the compound before.

In the case of `COc1cc(C=NNC(=O)CCCCC(=O)NO)c(Br)cc1O` [benzylidenehydrazine derivative, 23], it took 59 nM to reach half-maximal inhibition (IC50).

Take `O=C(CCCCCC(=O)NN=Cc1ccccc1Cl)NO` [benzylidenehydrazine derivative, 18]: the IC50 was 90 nM.

For the compound `COc1ccc(Br)c(C=NNC(=O)CCCCCC(=O)NO)c1` [benzylidenehydrazine derivative, 12], the IC50 is 22 nM.

For `O=C(CCCCCC(=O)NN=Cc1ccccc1Br)NO` [benzylidenehydrazine derivative, 16], it took 37 nM to reach half-maximal inhibition (IC50).

`O=C(CCCCCCC(=O)NN=Cc1c(O)cc(O)cc1O)NO` [benzylidenehydrazine derivative, 11] returned a half-inhibitory concentration (IC50) of 43 nM.

With `O=C(CCCCCC(=O)NN=Cc1ccc(-n2ccnc2)cc1)NO` [benzylidenehydrazine derivative, 19], the IC50 was 15 nM.

The compound `O=C(CCCCC(=O)NN=Cc1ccc(B(O)O)cc1)NO` [benzylidenehydrazine derivative, 24] registered an IC50 of 45 nM.

Regarding `CN(C)c1ccc(C=NNC(=O)CCCCCC(=O)NO)c(O)c1` [benzylidenehydrazine derivative, 13], half-maximal inhibition (IC50) required 37 nM. The IC50 values of the last two compounds are within 1.5-fold of each other.

Turning to `O=C1CCc2c(ccc3ccccc23)O1` [1,2-Dihydro-3H-naphtho[2,1-b]pyran-3-one], the IC50 was > 10000 nM.

`O=C(CCCCCC(=O)NN=Cc1cc2c(cc1Br)OCO2)NO` [benzylidenehydrazine derivative, 10] registered an IC50 of 20 nM.

Compound `O=C(CCCCCC(=O)NN=Cc1cc(O)ccc1Br)NO` [benzylidenehydrazine derivative, 15] came in with an IC50 of 49 nM.

For `O=C(CCCCCCC(=O)NN=Cc1cc(O)ccc1O)NO` [benzylidenehydrazine derivative, 9], the IC50 stood at 110 nM. Against the preceding compound, the IC50 is about 2.2-fold higher.

The compound `O=C(CCCCCC(=O)NN=Cc1cccnc1Br)NO` [benzylidenehydrazine derivative, 20] registered an IC50 of 36 nM.

`O=C(CCCCCC(=O)NN=Cc1c(O)ccc2ccccc12)NO` [benzylidenehydrazine derivative, 14] gave an IC50 of 41 nM.

On to `COc1cc(C=NNC(=O)CCCCCC(=O)NO)c(Br)cc1O` [benzylidenehydrazine derivative, 17], for which the IC50 turned out to be 59 nM.
